Where a SMILES comes first, the peptide text is derived from it. [ ]: non-standard residue; d: D form. Phe(4-NO2) = N[C@@H](Cc1ccc([N+](=O)[O-])cc1)C(=O)O
Key:
Format in all cases: in vivo
[1] = test system: Male mice (CFLP strain); assay: Hotplate test; conditions: 55° C. hotplate, 15 mins. after treatment, reaction time twice the pretreatment figure, Ex. compounds calculated as the peptide per se; for ED50: Mus musculus, sc
Source text: (§1) (1) Both the hotplate test (Woolfe and MacDonald, J. Pharmacol. Exp. Ther. 80:300, 1944) and the irritant-induced writhing (stretch) test (Vander Wende and Margolin, Fed. Proc. 15:494, 1956) are standard in the art for the investigation of analgesic activity. Whereas it is believed that the pain in the latter can be ameliorated either centrally or peripherally, it is thought that that induced in the hotplate test is affected only at the central level.
Male mice (CFLP strain, Hacking and Churchill) were individually placed in a copper-bottomed perspex box suspended in a water bath at 55° C. and observed for signs of discomfort such as shaking or licking the paws, the reaction time (up to a maximum of 30 secs.) being recorded. Groups of five animals then received either a test compound or saline vehicle (0.85%) control by subcutaneous injection, the test being repeated at 15 mins. after treatment. The ED50 figures for the test compounds were calculated from the number of animals having a posttreatment reaction time which was twice the pretreatment figure.

[2] = test system: female CD1 mice; assay: Irritant-induced writhing test, phenylbenzoquinone (PBQ); conditions: s.c. 15 mins. prior to PBQ 2.5 mg/kg, Ex. compounds calculated as the peptide per se; for ED50: Mus musculus, 0.25 h
Source text: as §1
(§2) (i) Acetic Acid. Groups of five female CD1 mice (Charles River) received either a test compound or saline vehicle (0.85%) control by subcutaneous injection 15 mins. (unless otherwise indicated) prior to an intraperitoneal injection of 0.6% acetic acid at a dose volume of 25 ml/kg. After a further 20 mins. the writhing or stretching movements induced by the irritant were counted over a 21/2 min. period, a writhe/stretch being identified as an extension of a hindlimb accompanied by constriction of the abdomen.
(ii) Phenylbenzoquinone (PBQ). This test was carried out in a parallel manner to that employing acetic acid, […], except that the period over which the writhing/stretching movements were counted began 10 mins. after administration of the PBQ irritant, the latter being given at a dosage of 2.5 mg/kg and in a dose volume of 10 ml/kg.
(§3) The ED50 figures for the test compounds were calculated, using linear regression analysis, as the dose in the presence of which only half the number of writhes/stretches was induced compared with the controls.

[3] = test system: female CD1 mice; assay: Irritant-induced writhing test, acetic acid; conditions: s.c. 15 mins. prior to i.p. 0.6% acetic acid, Ex. compounds calculated as the peptide per se; for ED50: Mus musculus, 0.25 h
Source text: as §1, §2, §3

[4] = test system: male TFW mice; assay: Antagonism by quaternary opioid (N-methylnalorphine) in acetic acid writhing test; conditions: for ED50 (mg/kg, s.c.) Saline control (b) / ED50: acetic acid writhing, saline i.p. 20 mins. before test compound s.c., Ex. compounds calculated as the peptide per se; for Dose ratio (a):(b): ratio of equiactive doses in presence and absence of N-methylnalorphine, calculated from the linear regression of the dose/response curves; for ED50: Mus musculus, 20 min, read-out: ED50 (mg/kg, s.c.) Saline control (b)
Source text: (3) The analgesia induced by the peptides in the writhing test upon peripheral (parenteral) administration is antagonised by parenteral administration of the quaternary opioid antagonist N-allyl-normorphine methiodide (N-methylnalorphine; Koczka et al, Acta Chim. Acad. Sci. Hung. 51:393, 1967), i.e. a higher dose of the peptide is required in the presence than in the absence of the opioid for the same effect. As penetration of the blood-brain barrier by the quaternary compound is minimal (c.f. Tavani et al, European J. Pharmacol. 59:151-154, 1979) both the peptide-induced analgesia and the antagonism thereof are effected at the peripheral level.
Groups of six male TFW mice (Tuck) received by intraperitoneal injection either N-methylnalorphine (16 mg/kg) or saline vehicle (0.85%) control at a volume of 10 ml/kg followed after 20 mins. by a solution of the test compound in saline (10 ml/kg, subcutaneous) and after a further 30 mins. by 0.6% acetic acid (25 ml/kg, intraperitoneal). The total number of writhes/stretches per group was then determined over the 5 min. period commencing 15 mins. after administration of the acetic acid. Using linear regression analysis the ED50 figures for the test compounds were calculated (defined as in (B) supra) together with the dose ratios therefor, i.e. the ratios of the dose of compound required for equiactive antinociceptive effect in respectively the presence and the absence of the quaternary compound.

[5] = test system: Female Cobs Wistar rats; assay: Antidiarrhoeal activity (castor oil-induced diarrhoea); conditions: calculated as the peptide per se; for ED50 (mg/kg, s.c.) antidiarrhoeal, 1.5 hrs.: 1.5 hrs. post castor oil; for ED50 (mg/kg, s.c.) antidiarrhoeal, 2.0 hrs.: 2.0 hrs. post castor oil; for ED50 (mg/kg, s.c.) antidiarrhoeal, 3.0 hrs.: 3.0 hrs. post castor oil
Description: Female Cobs Wistar rats (Charles River) were starved for 24 hours prior to subcutaneous administration of the test compound as a solution in 0.85% (w/w) saline and at a volume of 10 ml/kg. Fifteen minutes after the compound each rat received 1 ml. castor oil given orally and the animals were then observed for the appearance of diarrhoea.

[6] = test system: guinea pigs; assay: Antitussive activity (citric acid aerosol-induced cough); conditions: s.c. 30 minutes before 30% citric acid aerosol; calculated as the peptide per se; 95% confidence limits 0.04-2.6 mg/kg
Description: In this test procedure, a modification of that described by Boura et al., Br. J. Pharmac., 39/1 (1970) 225, guinea pigs were subjected to an aerosol containing 30% citric acid, 30 minutes after subcutaneous administration of test compound as a solution in 0.85% (w/w) saline, and the number of coughs during a 121/2-minute exposure counted.

[7] = test system: marmosets; assay: Toxicology, 14-day subcutaneous administration, marmosets; conditions: s.c. daily for 14 days at 7.5, 15 or 30 mg/kg per day (as peptide per se)
Description: (§4) The diacetate product of Example 1 was administered subcutaneously to rats and marmosets as a solution in 0.85% (w/w) saline at a volume of 0.1 ml/100 g bodyweight. For each species the compound was given daily for 14 days at a dose (calculated as the peptide per se) selected from 7.5, 15 and 30 mg/kg bodyweight per day.

[8] = test system: rats; assay: Toxicology, 14-day subcutaneous administration, rats; conditions: rat; s.c. daily for 14 days at 7.5, 15 or 30 mg/kg per day (as peptide per se)
Description: as §4

Compound	ED50 [1] [mg/kg]	ED50 [2] [mg/kg]	ED50 [3] [mg/kg]	ED50 (mg/kg, s.c.), hotplate test [1] [mg/kg]	ED50 (mg/kg, s.c.) Acetic acid writhing [3] [mg/kg]	ED50 (mg/kg, s.c.) PBQ writhing [2] [mg/kg]	ED50 (mg/kg, s.c.) Saline control (b) [4] [mg/kg]	Dose ratio (a):(b) [4]	ED50 (mg/kg, s.c.) antidiarrhoeal, 1.5 hrs. [5] [mg/kg]	ED50 (mg/kg, s.c.) antidiarrhoeal, 2.0 hrs. [5] [mg/kg]	ED50 (mg/kg, s.c.) antidiarrhoeal, 3.0 hrs. [5] [mg/kg]	ED50 [4] [mg/kg]	ED50 (dose required to reduce the number of coughs by 50%) [6] [mg/kg]	clinical signs observed [7]	toxicity attributable to the compound [8]
COc1ccc2c(c1)c(CC(=O)O)c(C)n2C(=O)c1ccc(Cl)cc1 [Indomethacin, reference compound]	> 100	0.9	–	–	–	–	–	–	–	–	–	–	–	–	–
CC(C)=CCN1CCC2(C)c3cc(O)ccc3CC1C2C (stereo not drawn) [Pentazocine, reference compound]	> 100	–	2.3	–	–	–	–	–	–	–	–	–	–	–	–
H--Tyr--D--Met(Me)--Gly--Phe(4NO2)--Pro.NH2 chloride, hydrochloride [Ex. 2]	–	–	–	129.5	1.2	4.6	1.5	3.3	0.16	0.89	8.61	–	–	–	–
CCC(=O)O[C@](Cc1ccccc1)(c1ccccc1)[C@H](C)CN(C)C [Dextropropoxyphene, reference compound]	25.9	2.6	4.2	–	–	–	–	1.0	–	–	–	6.8	–	–	–
CN1CC[C@]23c4c5ccc(O)c4O[C@H]2[C@@H](O)C=C[C@H]3[C@H]1C5 [Morphine, reference compound]	1.8	0.38	–	–	–	–	–	–	–	–	–	0.4	–	–	–
N--AmidinoTyr--D--Met(Me)--Gly--Phe(4NO2)--Pro.NH2 chloride, hydrochloride [Ex. 4]	–	–	–	43.8	0.6	1.0	0.7	4.2	0.07	0.14	0.84	–	–	–	–
N=C(N)NCCC[C@@H](NC(=O)[C@@H](N)Cc1ccc(O)cc1)C(=O)NCC(=O)N[C@@H](Cc1ccc([N+](=O)[O-])cc1)C(=O)N1CCC[C@H]1C(N)=O [Ex. 1, H--Tyr--D--Arg--Gly--Phe(4--NO2)--Pro.NH2 diacetate] (H-Y[dR]G[Phe(4-NO2)]P-NH2)	–	–	–	94.8	4.3	4.0	4.6	4.1	0.79	3.19	54.9	–	0.26	transient post-dose vomiting and salivation at 30 mg/kg and to a lesser extent at the lower doses	No toxicity attributable to the compound was seen

Source: patent US4489062A, “Pharmaceutical compounds, preparation, use and intermediates therefor and their preparation” (priority 1982, dated 1984)
